Measured values: the NIST ThermoML archive (doi:10.1021/je100875a)
Numbers after ± are expanded uncertainties.

Assay: mn = molality of the nth substance listed, in mol/kg
Settings: 101 kPa, Liquid

In the case of `O=[N+]([O-])[O-].O=[N+]([O-])[O-].O=[N+]([O-])[O-].[Y+3]` [yttrium nitrate] + O, the mass density (293.15 K, m1 = 0.4989) is reported as 1105.5 ± 0.2 kg/m3, the mass density (293.15 K, m1 = 0.9965) is reported as 1202.6 ± 0.2 kg/m3 and the mass density (293.15 K, m1 = 1.497) is reported as 1290.8 ± 0.3 kg/m3. The mass density (293.15 K, m1 = 1.982) was 1368.7 ± 0.4 kg/m3, the mass density (293.15 K, m1 = 2.947) was 1502.8 ± 0.5 kg/m3 and the mass density (293.15 K, m1 = 3.945) was 1615.7 ± 0.5 kg/m3. The mass density (293.15 K, m1 = 4.957) was 1708.9 ± 0.6 kg/m3, the mass density (298.15 K, m1 = 0.2775) was 1057.4 ± 0.2 kg/m3 and the mass density (298.15 K, m1 = 0.3213) was 1066.6 ± 0.2 kg/m3. The mass density (298.15 K, m1 = 0.3706) was 1076.9 ± 0.2 kg/m3, the mass density (298.15 K, m1 = 0.4172) was 1086.5 ± 0.2 kg/m3 and the mass density (298.15 K, m1 = 0.4989) was 1103.5 ± 0.2 kg/m3. The mass density (298.15 K, m1 = 0.9965) was 1200.2 ± 0.2 kg/m3, the mass density (298.15 K, m1 = 1.497) was 1287.8 ± 0.3 kg/m3 and the mass density (298.15 K, m1 = 1.982) was 1365.4 ± 0.4 kg/m3. It also gave a mass density (298.15 K, m1 = 2.947) of 1498.9 ± 0.5 kg/m3, a mass density (298.15 K, m1 = 3.945) of 1611.4 ± 0.5 kg/m3 and a mass density (298.15 K, m1 = 4.957) of 1704.3 ± 0.6 kg/m3. For the same molecule, the mass density (308.15 K, m1 = 0.4989) was 1099.2 ± 0.2 kg/m3, the mass density (308.15 K, m1 = 0.9965) was 1194.7 ± 0.2 kg/m3 and the mass density (308.15 K, m1 = 1.497) was 1281.4 ± 0.3 kg/m3. For the same molecule, the mass density (308.15 K, m1 = 1.982) was 1358.2 ± 0.3 kg/m3, the mass density (308.15 K, m1 = 2.947) was 1490.5 ± 0.5 kg/m3 and the mass density (308.15 K, m1 = 3.945) was 1602.2 ± 0.5 kg/m3. The mass density (308.15 K, m1 = 4.957) was 1694.7 ± 0.6 kg/m3.

`O=[N+]([O-])[O-].O=[N+]([O-])[O-].O=[N+]([O-])[O-].[La+3]` [lanthanum(III) nitrate] + O showed a mass density (293.15 K, m1 = 0.4953) of 1125.6 ± 0.2 kg/m3, a mass density (293.15 K, m1 = 0.9893) of 1240.6 ± 0.3 kg/m3 and a mass density (293.15 K, m1 = 1.48) of 1343.1 ± 0.3 kg/m3. The mass density (293.15 K, m1 = 1.97) was 1436.9 ± 0.4 kg/m3, the mass density (293.15 K, m1 = 2.93) was 1595.8 ± 0.5 kg/m3 and the mass density (293.15 K, m1 = 3.9) was 1729.3 ± 0.6 kg/m3. The mass density (293.15 K, m1 = 4.385) was 1787.9 ± 0.7 kg/m3, the mass density (298.15 K, m1 = 0.4953) was 1123.8 ± 0.2 kg/m3 and the mass density (298.15 K, m1 = 0.9893) was 1238.1 ± 0.3 kg/m3. The mass density (298.15 K, m1 = 1.48) was 1340.1 ± 0.3 kg/m3, the mass density (298.15 K, m1 = 1.97) was 1433.6 ± 0.4 kg/m3 and the mass density (298.15 K, m1 = 2.93) was 1591.8 ± 0.5 kg/m3. The mass density (298.15 K, m1 = 3.9) was 1725.3 ± 0.6 kg/m3, the mass density (298.15 K, m1 = 4.385) was 1783.8 ± 0.7 kg/m3 and the mass density (308.15 K, m1 = 0.4953) was 1119.2 ± 0.2 kg/m3. The mass density (308.15 K, m1 = 0.9893) was 1231.6 ± 0.3 kg/m3, the mass density (308.15 K, m1 = 1.48) was 1333.5 ± 0.3 kg/m3 and the mass density (308.15 K, m1 = 1.97) was 1426.3 ± 0.4 kg/m3. It also gave a mass density (308.15 K, m1 = 2.93) of 1583.4 ± 0.5 kg/m3, a mass density (308.15 K, m1 = 3.9) of 1716.3 ± 0.6 kg/m3 and a mass density (308.15 K, m1 = 4.385) of 1774.6 ± 0.7 kg/m3.

With `O=[N+]([O-])[O-].O=[N+]([O-])[O-].O=[N+]([O-])[O-].[Ce+3]` [cerium nitrate] + O the mass density (293.15 K, m1 = 0.5112) was 1131.2 ± 0.2 kg/m3, the mass density (293.15 K, m1 = 1.031) was 1252.8 ± 0.3 kg/m3 and the mass density (293.15 K, m1 = 1.555) was 1361.9 ± 0.4 kg/m3. It also gave a mass density (293.15 K, m1 = 1.997) of 1446.2 ± 0.4 kg/m3, a mass density (293.15 K, m1 = 3.131) of 1633.2 ± 0.6 kg/m3 and a mass density (293.15 K, m1 = 3.968) of 1746.4 ± 0.6 kg/m3. The mass density (293.15 K, m1 = 4.462) was 1806 ± 0.7 kg/m3, the mass density (298.15 K, m1 = 0.5112) was 1129.3 ± 0.2 kg/m3 and the mass density (298.15 K, m1 = 1.031) was 1250.2 ± 0.3 kg/m3. It also gave a mass density (298.15 K, m1 = 1.555) of 1358.8 ± 0.3 kg/m3, a mass density (298.15 K, m1 = 1.997) of 1443.1 ± 0.4 kg/m3 and a mass density (298.15 K, m1 = 3.131) of 1629.1 ± 0.6 kg/m3. For the same molecule, the mass density (298.15 K, m1 = 3.968) was 1742.4 ± 0.6 kg/m3, the mass density (298.15 K, m1 = 4.462) was 1801.8 ± 0.7 kg/m3 and the mass density (308.15 K, m1 = 0.5112) was 1124.7 ± 0.2 kg/m3. The mass density (308.15 K, m1 = 1.031) was 1244.4 ± 0.3 kg/m3, the mass density (308.15 K, m1 = 1.555) was 1352 ± 0.3 kg/m3 and the mass density (308.15 K, m1 = 1.997) was 1435.7 ± 0.4 kg/m3. It also gave a mass density (308.15 K, m1 = 3.131) of 1620.5 ± 0.6 kg/m3, a mass density (308.15 K, m1 = 3.968) of 1733.1 ± 0.6 kg/m3 and a mass density (308.15 K, m1 = 4.462) of 1792.2 ± 0.7 kg/m3.

For `O=[N+]([O-])[O-].O=[N+]([O-])[O-].O=[N+]([O-])[O-].[Nd+3]` [neodymium(III) nitrate] + O, the mass density (566.3 K, m1 = 0.522) was 1136.1 ± 0.4 kg/m3, the mass density (566.3 K, m1 = 1.021) was 1255.1 ± 0.5 kg/m3 and the mass density (566.3 K, m1 = 1.555) was 1369.8 ± 0.6 kg/m3. For the same molecule, the mass density (566.3 K, m1 = 2.093) was 1474.7 ± 0.7 kg/m3, the mass density (566.3 K, m1 = 3.086) was 1642.1 ± 0.9 kg/m3 and the mass density (566.3 K, m1 = 4.124) was 1785.9 ± 1.1 kg/m3. It also gave a mass density (566.3 K, m1 = 4.297) of 1807 ± 1.1 kg/m3, a mass density (571.3 K, m1 = 0.522) of 1134.2 ± 0.4 kg/m3 and a mass density (571.3 K, m1 = 1.021) of 1252.5 ± 0.5 kg/m3. For the same molecule, the mass density (571.3 K, m1 = 1.555) was 1366.7 ± 0.6 kg/m3, the mass density (571.3 K, m1 = 2.093) was 1471.1 ± 0.7 kg/m3 and the mass density (571.3 K, m1 = 3.086) was 1637.8 ± 0.9 kg/m3. The mass density (571.3 K, m1 = 4.124) was 1781.1 ± 1.1 kg/m3, the mass density (571.3 K, m1 = 4.297) was 1802.7 ± 1.2 kg/m3 and the mass density (581.3 K, m1 = 0.522) was 1129.6 ± 0.4 kg/m3. It also gave a mass density (581.3 K, m1 = 1.021) of 1246.7 ± 0.5 kg/m3, a mass density (581.3 K, m1 = 1.555) of 1359.9 ± 0.7 kg/m3 and a mass density (581.3 K, m1 = 2.093) of 1463.5 ± 0.8 kg/m3. For the same molecule, the mass density (581.3 K, m1 = 3.086) was 1628.8 ± 1 kg/m3, the mass density (581.3 K, m1 = 4.124) was 1771.4 ± 1.1 kg/m3 and the mass density (581.3 K, m1 = 4.297) was 1792.8 ± 1.2 kg/m3.
